Residues, ends and D or L forms follow the SMILES beside them.
Structure (SMILES)	melting point [°C]
CN(C)C1N(C)C(=O)NC(=O)N1c1cc(OCc2ccccc2)c(Cl)cc1F (stereo unspecified)	193 to 194
COc1ccc(-c2cccc([N+](=O)[O-])c2C)cn1	81 to 83
NC(c1ccnc2cc(Cl)ccc12)C1CCCC(CNc2ccnc3cc(Cl)ccc23)C1 (stereo unspecified)	92 to 95
CN(CCOc1ccc(Cn2cc(CCC(=O)O)c(-c3ccccc3)c2)cc1)c1ccccn1	110 to 111
C[C@@H](C(=O)O)N(C(=O)[C@@H]1CS[C@H](c2ccccc2O)N1C(=O)CCSC(=O)c1ccccc1)c1ccccc1	95 to 100
C[C@@H]1C(=O)C[C@H]2C[C@@H]1OO[C@@]2(C)/C=C\c1ccc(Cl)cc1Cl	137
O=C1c2ccccc2C(=O)N1Cc1noc(-c2ncn3c2[C@@H]2CCN2C(=O)c2c(Cl)cccc2-3)n1	189 to 192
N#Cc1ccc(C2C3=C(CCCC3)NC3=C2C(=O)CCC3)cc1C(F)(F)F (stereo unspecified)	210 to 212
CN1CCC(c2c[nH]c3ccc(C(=O)Cc4ccccc4)cc23)CC1	69
COC(=O)CCCNC(=O)/C=C/C=C/c1ccccc1	153 to 155
CC(=O)c1c(C)nc2c(OCc3c(Cl)ccc(S(=O)(=O)N4CCC[C@H]4C(=O)NCCCNC(=O)c4ccc(C(N)=NO)cc4)c3Cl)cccn12	164 to 166
CC#CCOc1cc(Oc2ccc(F)cc2)ncn1	116
CN1CCN(C(=O)c2ccc(CCc3cc4cc(C#N)ccc4o3)cc2)CC1	115 to 116
O=c1[nH]ncc2c1c(O)nc1cc(Cl)cc(Cl)c12	> 350
Cc1cccc(CNC(=O)CC#N)c1	110 to 112
Cc1nc(N2CCc3ccccc3CC2)c(C#N)c(=O)n1CCO	164 to 168
CN1CCN(c2cccc3ccc(OS(=O)(=O)C(F)(F)F)cc23)CC1	70 to 71
COc1ccc(F)cc1C(C)(C)CC(O)(Cn1cc(CO)c(=O)c2ccccc21)C(F)(F)F (stereo unspecified)	183 to 184
CCN(CC)CCOc1ccc(Nc2ncc3c(n2)N(CC)C(=O)N(c2cc(OC)cc(OC)c2)C3)cc1	139 to 141
CCCCS(=O)(=O)NCc1ccc(CCN2CCN(c3ccncc3)CC2)cc1	154 to 156
O=C(c1ccc(Cl)cc1)c1ccc(-n2ccnc2)nc1	155 to 156
O=C(NCCO[N+](=O)[O-])c1cnc(C(F)(F)F)s1	76 to 78
COc1ccccc1N1CCN(CCCO)CC1	88 to 89
CON1CCC2(CC1)C(O)=C(c1c(C)cc(C)cc1C)C(=O)N2C	171 to 178

Structure (SMILES)	melting point [°C]
Cn1c(-c2ccc(Cl)cc2)cc2cc(C(=O)O)ccc21	> 260
NNc1c(Cl)cc(C(F)(F)F)c(F)c1Cl	50 to 51
CCOC(=O)c1c(S(=O)(=O)c2ccc(C)cc2)nc(-c2ccccc2)c([N+](=O)[O-])c1C(=O)OCC	115 to 117
NC(=O)c1cnn2c1NCC=C2c1cccc(C(F)(F)F)c1	157 to 160
Cc1ccc(N(c2ccccc2)c2ccc3c4c(cccc24)CC3)cc1	147 to 148
CCN(CC)c1c(Cl)cc(-n2c(C(F)(F)F)nn(C)c2=S)cc1Cl	128 to 130
O=C(O)C=Cc1c(-c2ccccc2)nn2ccccc12	153 to 155
Cc1cc(C(O)(c2ccccc2)c2ccccc2)on1	116 to 118
COc1cccc(C2c3ccccc3C(c3ccc4c(c3)OCO4)C2C(=O)O)c1 (stereo unspecified)	131 to 133
Oc1ccc(Nc2ncc3nc(Nc4c(F)cc(F)cc4F)n(C4CCCC4)c3n2)cn1	257 to 260
CCn1cc(C(=O)O)c(=O)cc1-c1cccc(Cl)c1	212 to 213
Cc1nc2c(N)nc3ccccc3c2n1CCCCNS(=O)(=O)c1ccccc1	215 to 216
CN1CCN(c2ccc(N)cc2C(F)(F)F)CC1	121 to 123
COCc1cccc(CC=NO)c1[N+](=O)[O-]	92 to 95
Cc1cccc(C)c1CNc1cc(C2=NCCO2)cc2c1nc(C)n2C	235
COC(=O)/C(=C/c1ccc(OC)c(OC2CCCC2)c1)CC(=O)O	119 to 121
COc1cc2c(cc1OC)-c1[nH]c3ccc([N+](=O)[O-])cc3c1CC(=O)N2	> 330
CC1(C)OC(=O)C(Oc2ccc(F)c(F)c2)=C1c1ccc(S(C)(=O)=O)cc1	93 to 95
O=C(O)C1=Cc2cc(Cl)c(Oc3ccccc3)cc2OC1C(F)(F)F (stereo unspecified)	220 to 222
NC(=O)CC[C@H]1CC[C@@H](c2ccc(F)cc2)N1S(=O)(=O)c1ccc(Cl)cc1 (racemic)	114
CC1=Nc2ccc(-c3sc(C#N)cc3C)cc2C2(CCCC2)O1	58 to 60
COc1cc2cc(COC(C)=O)c(C(=O)OC3OC(CO)C(O)C(O)C3O)c(-c3ccc4c(c3)OCO4)c2cc1OC (stereo unspecified)	127 to 130
O=C1C2CCCC2=Nc2ccc(F)cc2N1Cc1ccccc1 (stereo unspecified)	158 to 159
CC(C)(C)OC(=O)N1C2CCC1CN(CCCNc1ccc(C#N)cc1)C2	124 to 127

Structure (SMILES)	melting point [°C]
C[C@@H](CSc1nc2ccccc2cc1-c1ccccc1)NC(=O)OC(C)(C)C	86 to 87
COc1ccc2nc(OC)cc(C)c2c1	58 to 59
COC(=O)C(Cc1ccccc1)NC(=O)C(CC(=O)O)NC(=O)C(N)CO (stereo not drawn) (H-Ser-Asp-Phe-OMe; configuration not given here)	196 to 199
Cc1cc(C(Cl)=NO)ccc1Br	77 to 78
CCCc1nc2c(N)nc3cc(Br)ccc3c2s1	160 to 163
CCc1noc(-c2cn(-c3ccc(OC)cc3)cn2)n1	147 to 148
C=CCN1CCc2ccc(C(=O)CCC(=O)N3CCC(c4ccc(Cl)cc4)CC3)cc2CC1	136 to 137
CCCc1cc(Cl)c2oc(C(=O)OCC)c(C)c2c1O	165 to 166
Cc1oncc1CN1C(=O)C2(COc3cc4c(cc32)OCO4)c2ccccc21 (stereo unspecified)	159 to 161
CCCCN(C)Cc1c(-c2ccccc2)sc(N)c1C(=O)c1ccc(Cl)cc1	84 to 88
CN(CCC(Oc1ccc(C(=O)c2cc3ccccc3s2)cc1)c1ccc(Cl)cc1)CC(=O)O (stereo unspecified)	101 to 112
CCOC(=O)CNC(=O)CCCCCNC(=O)c1ccc(F)cc1	121 to 122
CCOP(=S)(OCC)OC(=O)/C(=N\OC(C)=O)c1csc(N)n1	128 to 130
O=C(O)C(=O)c1cc(Cl)c(OCCOc2ccc3ccccc3c2)c(Cl)c1	108 to 110
CNc1nc(C#N)c(C#N)nc1NC(C)(C)C	> 250
Cc1ccccc1Nc1nc(N(C)c2ccccc2)c2cccc(O)c2n1	174 to 175
CC(C)(C)C(=O)CN1C(=O)C(NC(=O)Nc2cccc3ccccc23)CN(C2CCCCC2)c2ccccc21 (stereo unspecified)	200 to 203
CC(C)SC(=O)Cc1cc(Oc2ccc(C(F)(F)F)cc2Cl)ccc1[N+](=O)[O-]	102 to 104
COc1nc2ccccc2cc1NC(=O)N1CCN(c2cc(F)cc(F)c2)CC1	158 to 159
C=CCNc1nc(NC(=O)Nc2ccccc2OC)nc(N(CCC(=O)O)Cc2ccc(Cl)c(Cl)c2)n1	201
CC(C(=O)O)c1ccc(OCCNC(=O)C2Cc3ccccc3N2S(=O)(=O)c2ccc(-c3cccc(C(F)(F)F)c3)cc2)cc1 (stereo unspecified)	92 to 96
CCCCCCOc1ccc(-c2ncc(-c3ccc(OCc4ccccc4)c(F)c3F)cn2)cn1	115
Cc1cnc(C#Cc2ccccc2)s1	82 to 83
COc1cccc2c(Nc3ccc(C(=O)NC4CCN(Cc5ccccc5)CC4)cc3)c(C(N)=O)cnc12	154 to 162

Structure (SMILES)	melting point [°C]
O=c1occc2ccc(Cl)cc12	110 to 111
O=C(O)c1ccc(-c2ccc(Cl)cc2)cn1	> 260
OCC(O)CSC(=S)Nc1ccccn1 (stereo unspecified)	98
COC(=O)CNC(=O)c1ccc(-c2ccccc2)cc1	127 to 128
Cn1cc(-c2ccccc2)nc1CO	191 to 192
FC(F)(F)c1nnc(Cl)c2cc3ccccn3c12	245 to 246
CCOC(=O)C(C)Cc1ccnc(-c2nc(=O)c3ccccc3s2)c1 (stereo unspecified)	120 to 121
Cc1ccc(C)c(-c2cn(C)cc(-c3ccccc3)c2=O)c1	188 to 190
Cc1c(NC(=O)c2ccc(-c3ccccc3F)cc2)ccc2cc(CN3CCCC3)cnc12	133 to 135
CC1(C)Cc2ccc(C(F)(F)F)c(C#N)c2O1	79 to 83
c1ccc(CN2CCN(Cc3nc4ccccc4[nH]3)CC2)cc1	195 to 201
Cc1cccc(CCC(CO)n2cnc(C(N)=O)c2)c1 (stereo unspecified)	116 to 118
COC(=O)CCc1cc2c(OC)cccc2n1Cc1ccccc1	195 to 196
COC(=O)CCCCc1cc2cc(C(F)(F)F)ccc2n1S(=O)(=O)c1cccc(C(C)(C)C)c1	77
O=C(NCC12CC3CC(CC(C3)C1)C2)c1cc(-c2ccc(Cl)cc2C(=O)O)ccc1Cl	207 to 210
Oc1ccc2cc(-c3cnc(-c4cn(Cc5ccccc5)c5ccccc45)o3)ccc2c1	242 to 244
COc1cc(-c2csc(NCCCCCC(=O)Nc3ccc(C(F)(F)F)cc3)n2)cc([N+](=O)[O-])c1O	160 to 162
CC(C)c1ccc(-n2nc(C(C)(C)C)cc2NC(=O)c2cncc3cc(Oc4cc(N)ncn4)ccc23)cc1	131 to 133
Cc1cc(-c2ccc(Cl)c(Cl)c2)nc(-n2cnc(-c3ccc(S(N)(=O)=O)s3)c2)n1	254
CCOc1cc(Oc2ccc(S(C)(=O)=O)nc2)cc2cc(C3=NCC(CC(=O)NC)S3)[nH]c12 (stereo unspecified)	224 to 225
O=C1CCC(N2Cc3c(OCc4ccc(CN5CCCCC5)cc4)cccc3C2=O)C(=O)N1 (stereo unspecified)	186 to 188
CN1CC(CCCl)Oc2ccc([N+](=O)[O-])cc2C1=S (stereo unspecified)	153 to 155
Cc1ccccc1-c1cc(C(F)(F)F)n2cnc(C#N)c2n1	151
CCCCCCCCCCCCc1cnn(C(C(=O)Nc2c(OC)cc(OC)cc2OC)c2ccccc2)c1 (stereo unspecified)	77 to 79

Source: a melting point compilation (Tetko et al.; mined from patent text by program, amines drawn as free bases though some values may be those of a salt)
